Measurements from ChEMBL document CHEMBL1201862, “PubChem BioAssay data set” (2004).
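Tested at 5 concentrations; 48 h exposure; 96-well plates; endpoints linearly interpolated, else capped at highest concentration. GI50 marks 50% less growth.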 Activity calls are given as the source filed them. Rule as the data show it: active = GI50 up to about 1.1 µM and inactive = higher.

Experiments:
Assay in all cases: NCI anticancer screen, dose series, 48 h
NCI-H23 = system: NCI-H23
OVCAR-8 = system: OVCAR-8
HT-29 = system: HT-29
HOP-62 = system: HOP-62
OVCAR-5 = system: OVCAR-5
NCI-H460 = system: NCI-H460
KM12 = system: KM12
UO-31 = system: UO-31
NCI-H226 = system: NCI-H226
RXF 393 = system: RXF 393
A498 = system: A498
CCRF-CEM = system: CCRF-CEM
SK-MEL-5 = system: SK-MEL-5
RPMI-8226 = system: RPMI-8226
SW-620 = system: SW-620
MDA-N = system: MDA-N
MDA-MB-435 = system: MDA-MB-435
MDA-MB-231 = system: MDA-MB-231
HL-60 = system: HL-60

Measured: GI50

COc1ccc([C@H]2CC(=O)NCCCCN2)cc1
inactive: NCI-H23 > 100 µM | OVCAR-8 > 100 µM | HT-29 > 100 µM | HOP-62 > 100 µM | OVCAR-5 > 100 µM | NCI-H460 > 100 µM | KM12 > 100 µM | UO-31 > 100 µM | NCI-H226 > 100 µM | RXF 393 > 100 µM | A498 > 100 µM | CCRF-CEM > 100 µM | SK-MEL-5 > 100 µM | RPMI-8226 > 100 µM

Cc1csc(CCC(N)C(=O)O)n1 (stereo not drawn)
inactive: NCI-H23 > 100 µM | OVCAR-8 > 100 µM | HT-29 > 100 µM | NCI-H460 > 100 µM | KM12 > 100 µM | UO-31 > 100 µM | NCI-H226 > 100 µM | SW-620 > 100 µM | RXF 393 > 100 µM | CCRF-CEM > 100 µM | SK-MEL-5 > 100 µM | RPMI-8226 > 100 µM

COc1cc(OC)c2c(C)cc(=O)oc2c1
inactive: NCI-H23 64.4 µM | OVCAR-8 55.7 µM | MDA-N > 100 µM | HT-29 43.4 µM | HOP-62 > 100 µM | OVCAR-5 > 100 µM | KM12 54.2 µM | UO-31 20.3 µM | NCI-H226 41.5 µM | SW-620 54.5 µM | A498 20.6 µM | CCRF-CEM > 100 µM | MDA-MB-435 88.9 µM | MDA-MB-231 70.3 µM | SK-MEL-5 > 100 µM | RPMI-8226 44.6 µM

O=C(N/C(=C\c1ccc(Oc2ccc(Cl)c(Cl)c2)cc1)c1nc2ccccc2[nH]1)c1ccccc1
inactive: NCI-H23 13.3 µM | OVCAR-8 14.6 µM | HT-29 15.5 µM | OVCAR-5 22.4 µM | KM12 15.3 µM | UO-31 14.1 µM | SW-620 16.6 µM | RXF 393 13.9 µM | CCRF-CEM 17.1 µM | SK-MEL-5 16.1 µM

N/N=C(\Cc1ccccc1)NN=C(N)N
inactive: NCI-H23 > 100 µM | OVCAR-8 > 100 µM | HT-29 > 100 µM | OVCAR-5 > 100 µM | NCI-H460 > 100 µM | HL-60 > 100 µM | KM12 > 100 µM | UO-31 > 100 µM | NCI-H226 > 100 µM | SW-620 > 100 µM | A498 > 100 µM | CCRF-CEM 26.5 µM | SK-MEL-5 > 100 µM | RPMI-8226 > 100 µM

CN(C(=O)C12C3C4C1C1C2C3C41C(N)=O)C(C)(C)C (stereo not drawn)
inactive: NCI-H23 > 100 µM | OVCAR-8 > 100 µM | HT-29 > 100 µM | OVCAR-5 > 100 µM | NCI-H460 > 100 µM | HL-60 > 100 µM | KM12 > 100 µM | UO-31 > 100 µM | NCI-H226 > 100 µM | SW-620 > 100 µM | A498 > 100 µM | CCRF-CEM > 100 µM | SK-MEL-5 > 100 µM

COC(=O)C(C(=O)C(=O)Nc1nc2ccc([N+](=O)[O-])cc2s1)c1nc2ccc(Cl)cc2nc1O (stereo not drawn)
inactive: NCI-H23 > 100 µM | OVCAR-8 > 100 µM | HT-29 > 100 µM | HOP-62 > 100 µM | OVCAR-5 > 100 µM | NCI-H460 > 100 µM | HL-60 > 100 µM | KM12 > 100 µM | UO-31 > 100 µM | NCI-H226 > 100 µM | SW-620 > 100 µM | RXF 393 > 100 µM | A498 21.2 µM | CCRF-CEM > 100 µM | SK-MEL-5 > 100 µM | RPMI-8226 > 100 µM

COc1nc(NC2OC(COC(C)=O)C(OC(C)=O)C(OC(C)=O)C2OC(C)=O)c(-c2csc(N)n2)c(=O)n1C (stereo not drawn)
inactive: NCI-H23 66.1 µM | OVCAR-8 31.8 µM | HT-29 > 100 µM | HOP-62 29.6 µM | OVCAR-5 > 100 µM | NCI-H460 73.1 µM | KM12 > 100 µM | UO-31 52.8 µM | NCI-H226 37.9 µM | SW-620 > 100 µM | A498 > 100 µM | CCRF-CEM > 100 µM | SK-MEL-5 43.3 µM | RPMI-8226 > 100 µM

Cc1ccc(/N=N/c2ccc(N(CCC#N)CCC#N)cc2C)c(Br)c1
inactive: NCI-H23 21.3 µM | OVCAR-8 49.3 µM | HT-29 3.53 µM | HOP-62 16.6 µM | OVCAR-5 56 µM | HL-60 5.42 µM | KM12 3.5 µM | UO-31 16.9 µM | NCI-H226 17.2 µM | SW-620 21.9 µM | RXF 393 9.27 µM | A498 51.9 µM | CCRF-CEM 5.85 µM | SK-MEL-5 16.3 µM | RPMI-8226 4.33 µM

CCCCCCCCCCCCn1[nH]c(C)c(C(=S)SCCCCCCCC)c1=O
inactive: NCI-H23 73.3 µM | OVCAR-8 30.7 µM | HT-29 76.2 µM | HOP-62 50.1 µM | OVCAR-5 > 100 µM | NCI-H460 61.4 µM | HL-60 45.1 µM | KM12 70.1 µM | UO-31 60.3 µM | NCI-H226 23.4 µM | SW-620 35.2 µM | RXF 393 37.3 µM | A498 > 100 µM | CCRF-CEM 28.1 µM | SK-MEL-5 49 µM

Cc1ccc(NC(=O)CCC(CC(=O)C(C)(C)C)=NNC(=O)C(=O)NN)cc1C
inactive: NCI-H23 > 100 µM | OVCAR-8 > 100 µM | HT-29 > 100 µM | HOP-62 > 100 µM | OVCAR-5 > 100 µM | NCI-H460 > 100 µM | HL-60 > 100 µM | KM12 > 100 µM | UO-31 > 100 µM | NCI-H226 > 100 µM | SW-620 > 100 µM | RXF 393 > 100 µM | CCRF-CEM > 100 µM | SK-MEL-5 > 100 µM | RPMI-8226 > 100 µM

COc1cc2c(cc1OC)C(=O)N1CCCC1C(=O)S2 (stereo not drawn)
inactive: NCI-H23 > 100 µM | OVCAR-8 > 100 µM | HOP-62 > 100 µM | OVCAR-5 > 100 µM | NCI-H460 > 100 µM | HL-60 > 100 µM | KM12 > 100 µM | UO-31 > 100 µM | SW-620 > 100 µM | RXF 393 > 100 µM | CCRF-CEM > 100 µM | SK-MEL-5 > 100 µM | RPMI-8226 > 100 µM

NC(=O)N/N=C(\CC1OC(=O)c2ccccc21)c1ccco1 (stereo not drawn)
inactive: NCI-H23 > 100 µM | HT-29 > 100 µM | OVCAR-5 > 100 µM | NCI-H460 > 100 µM | HL-60 > 100 µM | KM12 > 100 µM | UO-31 > 100 µM | NCI-H226 > 100 µM | SW-620 > 100 µM | RXF 393 > 100 µM | A498 > 100 µM | CCRF-CEM > 100 µM | SK-MEL-5 > 100 µM

O=C1c2ccccc2C(=O)c2nc3ccc(Cl)cc3cc21
inactive: NCI-H23 > 100 µM | OVCAR-8 > 100 µM | HT-29 > 100 µM | HOP-62 > 100 µM | OVCAR-5 > 100 µM | NCI-H460 > 100 µM | KM12 > 100 µM | UO-31 > 100 µM | NCI-H226 > 100 µM | SW-620 > 100 µM | CCRF-CEM > 100 µM | SK-MEL-5 > 100 µM | RPMI-8226 > 100 µM

COC(=O)C1=NC(=S)NC(c2ccccc2)C1c1nc2ccccc2o1 (stereo not drawn)
inactive: NCI-H23 > 50 µM | OVCAR-8 > 50 µM | HT-29 > 50 µM | HOP-62 > 50 µM | OVCAR-5 > 50 µM | NCI-H460 > 50 µM | HL-60 > 50 µM | KM12 > 50 µM | UO-31 > 50 µM | NCI-H226 > 50 µM | SW-620 > 50 µM | RXF 393 20.1 µM | A498 > 50 µM | CCRF-CEM > 50 µM | RPMI-8226 > 50 µM

CC(=O)OCC1=CC2CCC3C(C)(CCC[C@]3(C)COC(C)=O)C23CC[C@H]1C3 (stereo partly drawn)
inactive: NCI-H23 33.9 µM | OVCAR-8 53.7 µM | HT-29 35.8 µM | HOP-62 75.9 µM | OVCAR-5 > 100 µM | NCI-H460 > 100 µM | HL-60 26 µM | KM12 33.7 µM | UO-31 53.7 µM | NCI-H226 68.1 µM | SW-620 56.6 µM | RXF 393 46.5 µM | A498 > 100 µM | CCRF-CEM 27.9 µM | SK-MEL-5 25.5 µM | RPMI-8226 21.6 µM

O=C1CCC(=O)c2c1c(O)c1ccncc1c2O
inactive: NCI-H23 16.4 µM | OVCAR-8 10 µM | HT-29 6.62 µM | HOP-62 30.9 µM | OVCAR-5 23 µM | NCI-H460 15.1 µM | HL-60 7.94 µM | KM12 16.3 µM | UO-31 15.5 µM | NCI-H226 20.6 µM | SW-620 16.4 µM | RXF 393 21 µM | CCRF-CEM 14.8 µM | SK-MEL-5 11.4 µM | RPMI-8226 17.5 µM

O=C1OC(=O)c2c1c(-c1ccccc1)cn2-c1ccc(Cl)cc1
inactive: NCI-H23 > 100 µM | OVCAR-8 > 100 µM | HT-29 > 100 µM | HOP-62 14.6 µM | OVCAR-5 > 100 µM | NCI-H460 > 100 µM | HL-60 1.15 µM | KM12 86.1 µM | UO-31 > 100 µM | NCI-H226 > 100 µM | SW-620 > 100 µM | CCRF-CEM 35.6 µM | SK-MEL-5 3.38 µM | RPMI-8226 26.8 µM

COc1ccc(/C=C/C(=O)c2sc(N)nc2C)cc1
inactive: NCI-H23 > 100 µM | OVCAR-8 > 100 µM | HT-29 > 100 µM | HOP-62 > 100 µM | OVCAR-5 > 100 µM | NCI-H460 > 100 µM | HL-60 > 100 µM | KM12 > 100 µM | UO-31 > 100 µM | SW-620 > 100 µM | RXF 393 > 100 µM | A498 > 100 µM | CCRF-CEM > 100 µM | SK-MEL-5 > 100 µM | RPMI-8226 > 100 µM
